Experiments:
Grb2 SH2 domain = Grb2 SH2 domain (Homo sapiens, UniProt P62993); assay: SPOT peptide array; format: binding; settings: GST-SH2 0.25 μM, membrane-bound peptide, 1 mM DTT, LiCor read-out
From the text: (§1) The use of addressable peptide arrays is a reproducible and semi-quantitative approach that has been extensively validated for studying protein interactions with peptide ligands. To investigate connections between SH2 domain proteins and their putative phosphorylated docking sites on cell surface receptors, we developed addressable arrays consisting of 192 phosphotyrosine peptides. This peptide set was assembled using 71 phosphotyrosine peptide motifs corresponding to all of the cytoplasmic tyrosine residues within the FGF receptors (FGFR1-4), insulin receptor (InsR) and IGF-1 receptor (IGF-1R) (Figure 1A). Activation of these receptors results in the phosphorylation of associated scaffold proteins, and so 75 phosphotyrosine peptides corresponding to a comprehensive list of tyrosine residues within insulin receptor substrates (IRS-1 and IRS-2) and fibroblast receptor substrates (FRS-2 and FRS-3) were included. In addition, 33 phosphotyrosine peptides were incorporated from the downstream signaling proteins PLC-γ1, p130Cas (BCAR1) and p62DOK1. […] These control peptides provide a reference and establish the empirical cut-off for designated binding interactions (Table 1). No discrimination was made against peptides on the basis of reported phosphorylation state in order to examine a diverse and unbiased set of motifs. The resulting set of 192 phosphotyrosine peptides and their corresponding position in the proteins of origin is noted in Additional file 1: Table S1. Addressable arrays were synthesized as membrane-bound 11-mer peptides using the SPOT synthesis technique. While the majority of SH2 domains recognize residues C-terminal to the phosphotyrosine in their cognate peptide ligands, additional contacts between SH2 domains and residues N-terminal to the phosphotyrosine are observed for the SH2 domain of Sh2d1a (SAP) and cannot be ruled out in other cases. Peptides were synthesized with six flanking residues C-terminal to the phosphotyrosine and four residues N-terminal to the phosphotyrosine.
(§2) SH2 domains were arrayed as GST fusion proteins and detected using anti-GST primary antibodies and near-infrared labeled secondary antibodies. In an effort to present a dataset with minimal false positives, we chose an empirical cutoff based on the array average across all peptide spots to classify interactions (Figure 1A). In cases where the intensity of the signal for an individual SH2-domain binding event exceeded the mean intensity of all the peptides on the membrane by three-fold were scored as “array positives” [22]. Non-binding was judged in cases where the intensity of a spot was less than the mean intensity of all spots on the membrane and these were scored as “array negatives”. Peptides with signal intensities between 1X and 3X mean were scored as “indeterminate” and ascribed as neither array positive binding interactions nor array-negative non-binders. […] This signature may be indicative of promiscuity differences between phosphopeptides or there may be a subset of peptides which interact in a nonspecific fashion with either the GST fusion tag or one of the antibodies used for detection, resulting in false positives. Consistent with our goal of reducing the errors associated with identifying false-positives, we probed three separate arrays with three separate preps of the GST fusion tag alone. Potentially non-specificly interacting peptides (so-called ‘sticky’ peptides) were identified as any that bound to GST with above mean intensity in two out of three separate trials. This approach identifies any peptides which interact with GST or either of the recognition antibodies, a known confounding factor for downstream analysis. This conservative approach allows us to score many significant peptides as ‘binders’ which may have been indeterminate before when incorporating the ‘sticky’ peptides into the array average. […]

panel of 50 SH2 domains = assay: SPOT peptide array probed with each of 50 GST-SH2 domains; format: binding; settings: SH2 domains with intensity >3X array mean; GST-SH2 0.25 μM, 1 mM DTT
In short: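 Each GST-fused SH2 domain was overlaid on 192 membrane-synthesized pTyr peptides (11-mers, 4 N-terminal and 6 C-terminal flanking residues) and read with anti-GST and near-infrared secondary antibodies. Binding called relative to membrane mean intensity (>3× positive, <1× negative); GST-only probes defined nonspecific peptides.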

Crk SH2 domain = Crk SH2 domain (Homo sapiens, UniProt P46108); assay: SPOT peptide array; format: binding; settings: GST-SH2 0.25 μM, membrane-bound peptide, 1 mM DTT, LiCor read-out
Chain of Crk SH2 domain (P46108 13-118 limits assumed): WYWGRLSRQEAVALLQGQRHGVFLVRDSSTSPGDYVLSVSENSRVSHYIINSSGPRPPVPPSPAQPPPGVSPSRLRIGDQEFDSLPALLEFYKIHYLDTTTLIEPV
From the text: as §1, §2

Plcγ-C SH2 domain = assay: SPOT peptide array; format: binding; settings: GST-SH2 0.25 μM; for Array positive: membrane-bound peptide, 1 mM DTT, LiCor read-out
From the text: as §1, §2

Nck1 SH2 domain = Nck1 SH2 domain (Homo sapiens, UniProt P16333); assay: SPOT peptide array; format: binding; settings: GST-SH2 0.25 μM; for Array positive: membrane-bound peptide, 1 mM DTT, LiCor read-out
From the text: as §1, §2

Ptpn11_N SH2 domain [1] = biological target: T1, Ptpn11_N SH2 domain (Homo sapiens, UniProt Q06124); set-up: method as in 5 sources, one per row (each row's own in cited_ref): ref [107] = [107]; PMID 8144631; Case RD Piccione E Wolf G Benett AM Lechleider RJ Neel BG Shoelson SE SH-PTP2/Syp SH2 domain binding specificity is defined by direct interactions with platelet-derived growth factor beta-receptor, ep ||| ref [107, 108] = [107]; PMID 8144631; Case RD Piccione E Wolf G Benett AM Lechleider RJ Neel BG Shoelson SE SH-PTP2/Syp SH2 domain binding specificity is defined by direct interactions with platelet-derived growth factor beta-receptor, ep || [108]; PMID 7504175; doi:10.1128/mcb.13.12.7418-7428.1993; Sun XJ Crimmins DL Myers MG Jr Miralpeix M White MF Pleiotropic insulin signals are engaged by multisite phosphorylation of IRS-1 Mol Cell Biol 1993 13 7418 7428 7504175 10.1128/mcb.13.12.7418-7428.19 ||| ref [95, 108, 110] = [95]; PMID 9422724; doi:10.1074/jbc.273.2.729; Ottinger EA Botfield MC Shoelson SE Tandem SH2 domains confer high specificity in tyrosine kinase signaling J Biol Chem 1998 273 729 735 9422724 10.1074/jbc.273.2.729 || [108]; PMID 7504175; doi:10.1128/mcb.13.12.7418-7428.1993; Sun XJ Crimmins DL Myers MG Jr Miralpeix M White MF Pleiotropic insulin signals are engaged by multisite phosphorylation of IRS-1 Mol Cell Biol 1993 13 7418 7428 7504175 10.1128/mcb.13.12.7418-7428.19 || [110]; PMID 9756938; doi:10.1074/jbc.273.41.26908; Myers MG Jr Mendez R Shi P Pierce JH Rhoads R White MF The COOH-terminal tyrosine phosphorylation sites on IRS-1 bind SHP-2 and negatively regulate insulin signaling J Biol Chem 1998 273 26908 26914 9 ||| ref 107 (IRS-1 Y896 also 108) ||| ref 95, 108, 110 = [95]; PMID 9422724; doi:10.1074/jbc.273.2.729; Ottinger EA Botfield MC Shoelson SE Tandem SH2 domains confer high specificity in tyrosine kinase signaling J Biol Chem 1998 273 729 735 9422724 10.1074/jbc.273.2.729 || [108]; PMID 7504175; doi:10.1128/mcb.13.12.7418-7428.1993; Sun XJ Crimmins DL Myers MG Jr Miralpeix M White MF Pleiotropic insulin signals are engaged by multisite phosphorylation of IRS-1 Mol Cell Biol 1993 13 7418 7428 7504175 10.1128/mcb.13.12.7418-7428.19 || [110]; PMID 9756938; doi:10.1074/jbc.273.41.26908; Myers MG Jr Mendez R Shi P Pierce JH Rhoads R White MF The COOH-terminal tyrosine phosphorylation sites on IRS-1 bind SHP-2 and negatively regulate insulin signaling J Biol Chem 1998 273 26908 26914 9; settings: ref 107 (IRS-1 Y896 also 108); read-out: Relative affinity (IC50); cited from earlier work
T1 sequence (Q06124 6-102 limits assumed): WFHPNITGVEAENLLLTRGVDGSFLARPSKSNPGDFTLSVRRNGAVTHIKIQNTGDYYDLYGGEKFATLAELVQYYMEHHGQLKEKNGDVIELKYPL

Ptpn11_N SH2 domain [2] = biological target: T1, Ptpn11_N SH2 domain; assay: SPOT peptide array; format: binding; settings: GST-SH2 0.25 μM, membrane-bound peptide, 1 mM DTT, LiCor read-out
From the text: as §1, §2

[3] = spot intensity as factor of array mean

Chain of Grb2 SH2 domain (P62993 60-152 limits assumed): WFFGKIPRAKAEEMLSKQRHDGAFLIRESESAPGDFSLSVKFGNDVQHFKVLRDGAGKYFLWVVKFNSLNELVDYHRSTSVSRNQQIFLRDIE

Substance	Array positive (Grb2 SH2 domain)	Other SH2 domains bound (additional array-positive SH2 domains) (panel of 50 SH2 domains)	also measured
NKLVpYENINGL [11-mer phosphotyrosine peptide, FRS2 (Y306)]	Yes (Array-positive binding was ascribed to interactions with intensities greater than three times the array mean)	Grap, Grb7, Sh2d2a	
EQDEYDIPRHL [11-mer peptide, p130Cas (Y234)]		Brk, Crkl, Fyn, Lck, Lyn, Shc1, Yes	Array positive (Crk SH2 domain): Yes (Array-positive binding was ascribed to interactions with intensities greater than three times the array mean)
DDPSpYVNVQNL [11-mer phosphotyrosine control peptide, ShcA (Y426), reference compound]	Yes (Array-positive binding was ascribed to interactions with intensities greater than three times the array mean)	Gads, Grap	
GGEFpYGYMTMD [11-mer phosphotyrosine peptide, IRS-2 (Y540)]		Dapp1, Grb7	Array positive (Plcγ-C SH2 domain): Yes (Array-positive binding was ascribed to interactions with intensities greater than three times the array mean)
NPGFpYVEANPM [11-mer phosphotyrosine peptide, PLCγ1 (Y783)]		PLCγ_C at 1.03X mean; Zap70_N	Array positive (Plcγ-C SH2 domain): No (Peptide spots with average intensity values between 1X-3X the array mean were defined as ‘indeterminate’. Those with intensities below 1X mean were defined as array negative); Peptide array intensity (X mean) (Plcγ-C SH2 domain; [3]): 1.03 X Mean
PNGDpYLNVSPS [11-mer phosphotyrosine peptide, IRS-2 (Y766)]	Yes (Array-positive binding was ascribed to interactions with intensities greater than three times the array mean)	Sh2d1b, Vav1	
TRDIpYETDpYpYR [triply phosphorylated peptide, InsR (Y1185,89,90)]		Crk, Crkl, Fer, Grb7, PI3K1_C	Array positive (Plcγ-C SH2 domain): Yes (Array-positive binding was ascribed to interactions with intensities greater than three times the array mean)
SDDDpYDDVDIP [11-mer phosphotyrosine control peptide, HPK1 (Y379), reference compound]		Fer, SLNK (similar to BLNK and SLP76)	Array positive (Nck1 SH2 domain): Yes (Array-positive binding was ascribed to interactions with intensities greater than three times the array mean)
DPNGpYMMMSPS (DPNGYMMMSPS) [11-mer phosphotyrosine peptide, IRS-1 (Y662)]			IC50 (Ptpn11_N SH2 domain [1]): 96 ± 13 µM
ATDDpYAVPPPR [11-mer phosphotyrosine peptide, p62DOK1 (Y409), similar to p130Cas (Y410)]		Crkl, Hck	Array positive (Crk SH2 domain): Yes (Array-positive binding was ascribed to interactions with intensities greater than three times the array mean)
PMHNpYVNTENV [11-mer phosphotyrosine peptide, FRS2 (Y392)]	Yes (Array-positive binding was ascribed to interactions with intensities greater than three times the array mean)	Gads, Grap	
ALLNpYENLPSL [11-mer phosphotyrosine peptide, FRS2 (Y349)]	Yes (Array-positive binding was ascribed to interactions with intensities greater than three times the array mean)	Abl1, Abl2, Gads, Grap, Grb2, Grb7, PI3K1_C, Sh2d2a, Sh3bp2	
SIEEpYTEMMPA (SIEEYTEMMPA) [11-mer phosphotyrosine peptide, IRS-1 (Y551)]			IC50 (Ptpn11_N SH2 domain [1]): 11 ± 1 µM
PQDIYDVPPVR [11-mer peptide, P130Cas (Y249)]		Crkl, Zap70_N	Array positive (Crk SH2 domain): Yes (Array-positive binding was ascribed to interactions with intensities greater than three times the array mean)
EDLSpYGDVPPG [11-mer phosphotyrosine peptide, IRS-1 (Y151)]		1.76X Mean Abl1, Blk, Fyn, Lck, Lyn, Sh2d1b, Shc1, Ship2, Slnk, Yes	Array positive (Nck1 SH2 domain): No (Peptide spots with average intensity values between 1X-3X the array mean were defined as ‘indeterminate’. Those with intensities below 1X mean were defined as array negative); Peptide array intensity (X mean) (Nck1 SH2 domain; [3]): 1.76 X Mean
QVHTpYVNTTGV [11-mer phosphotyrosine peptide, FRS2 (Y196)]	Yes (Array-positive binding was ascribed to interactions with intensities greater than three times the array mean)	Abl2, Gads, Grap, PI3K1_C	
RQLNpYIQVDLE [11-mer phosphotyrosine peptide, FRS2 (Y436)]		Itk, Mist, PLCγ_C, Rasa1_N, Shb, Shd, She, Syk_C	Array positive (Ptpn11_N SH2 domain [2]): Yes (Array-positive binding was ascribed to interactions with intensities greater than three times the array mean)

Reference: PMC3514216, “SRC Homology 2 Domain Binding Sites in Insulin, IGF-1 and FGF receptor mediated signaling networks reveal an extensive potential interactome” (Cell Communication and Signaling : CCS, 2012)
